Calls of active or inactive are those of the source. For most assays here, no stated cut-off is given here; in the data, actives have a measured Kd and inactives only a lower limit.

The target of assay [1] is T1, AarF domain-containing protein kinase 1 (Homo sapiens, UniProt Q86TW2).
T1 sequence (Q86TW2 whole entry): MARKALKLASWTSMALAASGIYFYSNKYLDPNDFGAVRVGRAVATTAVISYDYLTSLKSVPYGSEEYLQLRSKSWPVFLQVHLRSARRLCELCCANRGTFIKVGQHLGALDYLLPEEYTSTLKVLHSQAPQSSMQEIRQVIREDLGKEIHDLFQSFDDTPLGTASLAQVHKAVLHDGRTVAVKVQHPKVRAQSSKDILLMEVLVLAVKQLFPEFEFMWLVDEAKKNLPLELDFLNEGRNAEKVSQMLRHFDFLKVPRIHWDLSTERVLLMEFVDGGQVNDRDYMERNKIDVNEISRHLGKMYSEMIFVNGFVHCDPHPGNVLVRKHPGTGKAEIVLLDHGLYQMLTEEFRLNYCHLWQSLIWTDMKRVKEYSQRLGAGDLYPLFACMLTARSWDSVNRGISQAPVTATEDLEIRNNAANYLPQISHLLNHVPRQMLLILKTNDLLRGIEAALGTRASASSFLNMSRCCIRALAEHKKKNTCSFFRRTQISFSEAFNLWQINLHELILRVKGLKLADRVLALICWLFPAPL

The target in assay [2] is T2, Beta-adrenergic receptor kinase 1 (Homo sapiens, UniProt P25098).
T2 sequence (P25098 whole entry): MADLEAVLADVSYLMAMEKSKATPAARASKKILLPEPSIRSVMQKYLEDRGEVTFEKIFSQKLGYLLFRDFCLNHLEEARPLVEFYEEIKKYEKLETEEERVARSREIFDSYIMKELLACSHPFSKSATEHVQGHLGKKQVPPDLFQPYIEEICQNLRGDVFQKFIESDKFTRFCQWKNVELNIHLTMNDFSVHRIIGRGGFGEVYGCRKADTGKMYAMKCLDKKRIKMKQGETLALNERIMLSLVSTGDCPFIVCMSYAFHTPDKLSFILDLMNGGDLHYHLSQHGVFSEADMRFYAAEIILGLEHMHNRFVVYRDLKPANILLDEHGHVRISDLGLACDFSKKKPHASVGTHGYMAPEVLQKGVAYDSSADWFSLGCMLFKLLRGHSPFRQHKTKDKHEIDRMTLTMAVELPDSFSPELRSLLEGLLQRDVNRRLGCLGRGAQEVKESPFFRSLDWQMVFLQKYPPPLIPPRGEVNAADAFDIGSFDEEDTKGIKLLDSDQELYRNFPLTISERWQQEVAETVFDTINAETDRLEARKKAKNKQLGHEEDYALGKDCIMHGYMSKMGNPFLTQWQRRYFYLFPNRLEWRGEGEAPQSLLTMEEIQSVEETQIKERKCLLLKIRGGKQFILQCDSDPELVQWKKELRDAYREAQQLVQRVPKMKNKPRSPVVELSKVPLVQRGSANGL

The target of assay [3] is RAC-gamma serine/threonine-protein kinase (Homo sapiens, UniProt Q9Y243).
Assay [4] concerns the target Inosine-5'-monophosphate dehydrogenase 2 (Homo sapiens, UniProt P12268).
Assay [5] addresses T3, Phosphorylase b kinase gamma catalytic chain, liver/testis isoform (Homo sapiens, UniProt P15735).
T3 sequence (P15735 whole entry): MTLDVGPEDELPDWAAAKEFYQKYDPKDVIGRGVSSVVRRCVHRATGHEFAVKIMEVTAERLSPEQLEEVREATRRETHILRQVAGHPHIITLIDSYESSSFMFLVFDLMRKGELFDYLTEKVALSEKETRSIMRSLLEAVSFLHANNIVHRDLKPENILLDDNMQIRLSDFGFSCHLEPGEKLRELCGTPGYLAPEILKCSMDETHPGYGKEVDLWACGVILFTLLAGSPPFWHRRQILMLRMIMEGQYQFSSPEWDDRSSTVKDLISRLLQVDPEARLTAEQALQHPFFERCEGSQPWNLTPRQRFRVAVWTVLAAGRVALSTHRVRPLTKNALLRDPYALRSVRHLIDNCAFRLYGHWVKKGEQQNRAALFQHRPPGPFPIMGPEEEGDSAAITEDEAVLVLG

Assay [6] deals with Protein kinase C beta type (Homo sapiens, UniProt P05771).
The target of assay [7] is Ribosomal protein S6 kinase alpha-6 (Homo sapiens, UniProt Q9UK32).
For assay [8], the target named is T4, Uncharacterized protein FLJ45252 (Homo sapiens, UniProt Q6ZSR9).
T4 sequence (Q6ZSR9 whole entry): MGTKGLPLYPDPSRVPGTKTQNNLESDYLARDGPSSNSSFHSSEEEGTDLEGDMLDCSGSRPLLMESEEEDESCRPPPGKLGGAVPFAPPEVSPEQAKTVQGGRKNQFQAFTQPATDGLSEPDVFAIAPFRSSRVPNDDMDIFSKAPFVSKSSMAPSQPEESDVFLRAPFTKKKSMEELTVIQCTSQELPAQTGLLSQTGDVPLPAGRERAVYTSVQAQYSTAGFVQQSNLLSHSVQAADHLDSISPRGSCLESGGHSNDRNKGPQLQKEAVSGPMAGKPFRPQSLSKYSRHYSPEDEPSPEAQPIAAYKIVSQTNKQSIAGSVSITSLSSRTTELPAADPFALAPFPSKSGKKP
The following applies: read-out: Kd apparent; k-562, colo 205, sk-n-be(2) and mv-4-11.

Assay [9] concerns the target T5, Succinate--CoA ligase [ADP-forming] subunit beta, mitochondrial (Homo sapiens, UniProt Q9P2R7).
T5 sequence (Q9P2R7 whole entry): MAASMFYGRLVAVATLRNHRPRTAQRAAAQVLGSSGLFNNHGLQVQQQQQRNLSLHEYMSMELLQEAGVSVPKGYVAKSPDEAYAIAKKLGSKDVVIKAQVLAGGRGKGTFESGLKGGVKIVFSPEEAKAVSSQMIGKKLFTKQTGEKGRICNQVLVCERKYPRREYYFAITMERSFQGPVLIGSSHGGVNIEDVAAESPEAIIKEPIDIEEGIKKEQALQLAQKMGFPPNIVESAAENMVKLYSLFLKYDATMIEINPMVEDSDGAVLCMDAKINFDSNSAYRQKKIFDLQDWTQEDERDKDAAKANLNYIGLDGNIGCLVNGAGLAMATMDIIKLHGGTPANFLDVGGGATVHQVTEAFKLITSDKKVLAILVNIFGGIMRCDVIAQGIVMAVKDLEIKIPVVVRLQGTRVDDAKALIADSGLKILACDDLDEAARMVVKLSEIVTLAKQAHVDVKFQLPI

Ribosomal protein S6 kinase alpha-6, sequence (Q9UK32 whole entry): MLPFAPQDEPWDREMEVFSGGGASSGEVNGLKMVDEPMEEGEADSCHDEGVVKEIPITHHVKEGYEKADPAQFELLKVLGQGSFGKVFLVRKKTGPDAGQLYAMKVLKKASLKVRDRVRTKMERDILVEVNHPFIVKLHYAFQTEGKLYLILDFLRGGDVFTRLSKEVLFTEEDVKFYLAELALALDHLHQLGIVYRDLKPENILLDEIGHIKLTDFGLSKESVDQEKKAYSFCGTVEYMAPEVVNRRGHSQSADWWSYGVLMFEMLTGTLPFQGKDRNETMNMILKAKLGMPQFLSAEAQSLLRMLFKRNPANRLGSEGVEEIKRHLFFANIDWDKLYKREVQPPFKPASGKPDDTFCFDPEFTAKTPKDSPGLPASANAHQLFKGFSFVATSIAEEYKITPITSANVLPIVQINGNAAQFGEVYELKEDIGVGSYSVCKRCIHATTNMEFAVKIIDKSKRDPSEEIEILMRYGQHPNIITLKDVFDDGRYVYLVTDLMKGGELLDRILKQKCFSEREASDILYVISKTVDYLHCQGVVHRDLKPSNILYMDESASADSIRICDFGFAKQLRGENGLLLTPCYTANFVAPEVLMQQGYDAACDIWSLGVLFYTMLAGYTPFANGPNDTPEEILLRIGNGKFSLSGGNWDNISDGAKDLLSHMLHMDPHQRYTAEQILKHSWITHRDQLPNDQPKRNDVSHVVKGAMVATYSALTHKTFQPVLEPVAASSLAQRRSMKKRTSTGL
Protein kinase C beta type, sequence (P05771 whole entry): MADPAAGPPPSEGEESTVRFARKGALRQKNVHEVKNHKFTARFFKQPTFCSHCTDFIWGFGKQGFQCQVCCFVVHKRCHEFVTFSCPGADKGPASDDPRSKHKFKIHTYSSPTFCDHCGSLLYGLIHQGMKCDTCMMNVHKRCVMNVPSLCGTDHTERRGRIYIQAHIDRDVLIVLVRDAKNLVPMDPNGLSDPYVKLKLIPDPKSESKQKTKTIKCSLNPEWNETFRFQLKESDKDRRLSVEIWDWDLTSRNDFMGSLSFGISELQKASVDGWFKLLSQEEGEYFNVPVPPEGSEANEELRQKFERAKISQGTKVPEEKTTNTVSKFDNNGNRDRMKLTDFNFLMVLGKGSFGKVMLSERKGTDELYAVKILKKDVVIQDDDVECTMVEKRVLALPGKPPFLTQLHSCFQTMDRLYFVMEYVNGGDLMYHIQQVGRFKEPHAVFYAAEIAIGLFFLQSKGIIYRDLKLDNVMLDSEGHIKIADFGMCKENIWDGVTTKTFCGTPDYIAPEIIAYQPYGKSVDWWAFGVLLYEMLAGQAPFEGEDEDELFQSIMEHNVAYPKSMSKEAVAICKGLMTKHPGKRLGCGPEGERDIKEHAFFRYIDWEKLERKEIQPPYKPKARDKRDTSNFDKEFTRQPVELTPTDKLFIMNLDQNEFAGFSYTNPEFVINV
RAC-gamma serine/threonine-protein kinase, sequence (Q9Y243 whole entry): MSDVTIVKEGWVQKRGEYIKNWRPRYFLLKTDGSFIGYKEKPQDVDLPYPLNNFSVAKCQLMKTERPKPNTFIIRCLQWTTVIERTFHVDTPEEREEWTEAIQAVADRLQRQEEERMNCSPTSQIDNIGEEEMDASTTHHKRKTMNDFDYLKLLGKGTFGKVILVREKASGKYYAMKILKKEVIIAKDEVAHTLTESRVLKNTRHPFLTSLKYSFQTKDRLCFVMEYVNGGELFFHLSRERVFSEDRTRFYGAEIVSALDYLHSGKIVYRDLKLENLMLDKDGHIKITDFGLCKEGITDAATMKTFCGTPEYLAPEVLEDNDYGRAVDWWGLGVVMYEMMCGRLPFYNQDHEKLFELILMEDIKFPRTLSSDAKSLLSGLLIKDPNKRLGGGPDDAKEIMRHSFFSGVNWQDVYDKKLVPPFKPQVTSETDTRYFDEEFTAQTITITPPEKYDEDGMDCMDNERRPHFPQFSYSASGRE

Consider `COc1cc(OC)c(/C=C/S(=O)(=O)Cc2ccc(OC)c(NCC(=O)O)c2)c(OC)c1` [RIGOSERTIB], for which the Kd in assay [1], in assay [2], in [3], in assay [4], in [5] and in assay [6] was > 30 µM (inactive) in each case. Besides, the Kd in assay [7] and in [8] was > 30 µM (inactive) in each case.

As for `CC[C@H](Nc1ncnc2[nH]cnc12)c1nc2cccc(F)c2c(=O)n1-c1ccccc1` [IDELALISIB], the Kd in assay [1], in assay [2], in assay [3], in assay [4], in assay [5] and in [6] was > 30 µM (inactive) throughout. Also, the Kd in assay [7] and in assay [9] was > 30 µM (inactive) throughout.

For `CN1N=C(N)c2cn([C@@H]3O[C@H](COP(=O)(O)O)[C@@H](O)[C@H]3O)c3ncnc1c23` [TRICIRIBINE PHOSPHATE], the Kd in assay [1], in [2], in assay [3], in assay [4], in [5] and in [6] was > 30 µM (inactive) each time. Besides, the Kd in [7], in [9] and in assay [8] was > 30 µM (inactive) throughout.

Regarding `CCc1cnn2c(NCc3ccc[n+]([O-])c3)cc(N3CCCC[C@H]3CCO)nc12` [DINACICLIB], the Kd in [1], in assay [2], in [3], in [4], in assay [5] and in assay [6] was > 30 µM (inactive) each time. Besides, the Kd in assay [7] and in [9] was > 30 µM (inactive) throughout.

On to `COC(=O)[C@@]1(O)C[C@H]2O[C@]1(C)n1c3ccccc3c3c4c(c5c6ccccc6n2c5c31)C(=O)NC4` [K-252A], for which the Kd in [1] is 6.09 µM (active); in assay [2], > 30 µM (inactive); in assay [3], > 30 µM (inactive); in assay [4], > 30 µM (inactive); in [5], 3.26 µM (active); in assay [7], 2.18 µM (active). The Kd was > 30 µM (inactive) in assay [9] and 0.021 µM (active) in assay [8].

In the case of `COc1cc(CCc2cc(NC(=O)c3ccc(N4C[C@@H](C)N[C@@H](C)C4)cc3)n[nH]2)cc(OC)c1` [AZD-4547], the Kd in assay [1], in assay [2], in assay [3], in [4], in assay [5] and in assay [6] was > 30 µM (inactive) in each case. Moreover, the Kd in assay [7] and in assay [8] was > 30 µM (inactive) each time.

On to `Cc1cc2c(F)c(Oc3ncnn4cc(OC[C@@H](C)OC(=O)[C@H](C)N)c(C)c34)ccc2[nH]1` [BRIVANIB ALANINATE], for which the Kd in [1], in assay [2], in assay [3], in assay [5], in assay [6] and in assay [7] was > 30 µM (inactive) throughout. The Kd in assay [9] and in assay [8] was > 30 µM (inactive) in each case.

On to `CNC(=O)c1cc(Oc2ccc(NC(=O)Nc3ccc(Cl)c(C(F)(F)F)c3)c(F)c2)ccn1` [REGORAFENIB], for which the Kd in assay [1], in assay [2], in assay [3], in [4], in [5] and in assay [6] was > 30 µM (inactive) throughout. Moreover, the Kd in assay [7] and in assay [9] was > 30 µM (inactive) throughout.

Turning to `C=CC(=O)N1CCC(Oc2cc3c(Nc4ccc(Cl)c(Cl)c4F)ncnc3cc2OC)CC1` [POZIOTINIB], the Kd in assay [1], in assay [2], in assay [3], in assay [5], in assay [6] and in [7] was > 30 µM (inactive) each time. The Kd in [9] and in assay [8] was > 30 µM (inactive) each time.

For `O=C1NC(=O)/C(=C/c2ccc3nccc(-c4ccncc4)c3c2)S1` [GSK-1059615], the Kd in [1], in assay [2], in assay [3], in assay [5], in [6] and in assay [7] was > 30 µM (inactive) throughout. For the same compound, the Kd in [9] was > 30 µM (inactive); in [8], 0.078 µM (active).

Turning to `CC[C@@H]1C(=O)N(C)c2cnc(Nc3ccc(C(=O)N[C@H]4CC[C@H](N5CCN(CC6CC6)CC5)CC4)cc3OC)nc2N1C(C)C` [VOLASERTIB], the Kd in [1], in assay [2], in [3], in [4], in assay [5] and in assay [6] was > 30 µM (inactive) each time. Besides, the Kd in [7] and in assay [9] was > 30 µM (inactive) in each case.

For the compound `CN(C)C(=O)c1cc2cnc(Nc3ccc(N4CCNCC4)cn3)nc2n1C1CCCC1` [RIBOCICLIB], the Kd in assay [1], in assay [2], in [3], in assay [5], in assay [6] and in [7] was > 30 µM (inactive) each time. The Kd was > 30 µM (inactive) in [9] and 9.31 µM (active) in assay [8].
